How the values were obtained:
[1] = system: MDA-MB-436 (mutated BRCA1) cells; test: Cell growth inhibition assay (CellTiter-Glo), MDA-MB-436; type: cell-based; conditions: Homo sapiens, MDA-MB-436, 168 h, 500 cells/well, 7 days, CellTiter Glo 2.0; read-out: MDA-MB-436 pEC50 (converted)
Method: (§1) Cell proliferation was measured through the cell viability assay using DLD-1 BRCA2(−/−) and parental isogenic pair and MDA-MB-436 (mutated BRCA1) cell lines. The CellTiter-Glo (CTG) based cell viability assay is designed to determine the number of viable cells in the culture because of compound effect, by quantifying ATP, which indicates the presence of metabolically active cells.
(§2) DLD-1 BRCA2(−/−) and parental isogenic pair were cultured in RPMI 1640 supplemented with […] (FBS), and […] cells were cultured in DMEM supplemented with 10% FBS. Both were cultured at 37° C. with […]. Invention compounds were distributed to the 384 well plate (Corning, 3764) using Echo acoustic liquid handler to form a 1:3 serially diluted final concentration with top dose of 10 or 30 μM. The cells were seeded into the plate in the density of 50 cells/well (DLD-1 parental), 200 cells/well (DLD-1 BRCA2−/−), or 500 cells/well (MDA-MB-436). After a short spun, the cells were cultured in a well moisturized incubator at 37° C. with 5% CO2 for 7 days without disturbance. The cell viability was measured by CellTiter Glo 2.0 assay kit (Promega, G9243), and growth inhibition rate was calculated and plotted against final compound concentration, and the data were fitted in Xfit to generate IC50 values.

PARP1 = target: T1, PARP1 (Homo sapiens, UniProt P09874); test: Biochemical fluorescent polarization (FP) assay, displacement of PARPi-FL, PARP1; type: binding; conditions: 20 nM protein, 3 nM PARPi-FL, 4 h at room temperature; read-out: FP PARP1 pIC50 (converted)
T1 construct: made in house
Method: (§3) Compounds were characterized using an assay measuring the displacement of a commercially available fluorescently labeled PARP 1/2 inhibitor (PARPi-FL, Tocris Biosciences, #6461) as exemplified in assays performed in WO2014/064149 and WO2021/013735A1. The assay was performed utilizing the following method: Compounds were dissolved in DMSO an Echo550 liquid handler was utilized to make serial dilations in the desired concentration range in Optiplate-384F plates. 100% DMSO was used for the high (with protein) and low (without protein) control samples. 20 nL of compound or DMSO alone was added to individual assay plate wells. PARP1 and PARP2 protein were expressed, purified, and diluted in assay buffer containing 50 mM Tris pH 8.0, 0.001% Triton X-100, 10 mM MgCl2, 150 mM NaCl to a final concentration of 20 nM. The PARPi-FL was then added at a final concentration of 3 nM. The assay plate was centrifuged at 1000 rpm for 1 min and incubated for 4 h at room temperature. […] [formula]

PARP2 = target: T2, PARP2 (Homo sapiens, UniProt Q9UGN5); test: Biochemical fluorescent polarization (FP) assay, displacement of PARPi-FL, PARP2; type: binding; conditions: 20 nM protein, 3 nM PARPi-FL, 4 h at room temperature; read-out: FP PARP2 pIC50 (converted)
T2 construct: made in house
Method: as §3

DLD-1 BRCA2(−/−) cells = test: Cell growth inhibition assay (CellTiter-Glo), DLD-1 BRCA2(−/−); type: cell-based; conditions: Homo sapiens, DLD-1, 168 h; 200 cells/well, 7 days, CellTiter Glo 2.0; read-out: DLD-1 BRCA2(−/−) pEC50 (converted)
Method: as §1, §2

DLD-1 parental cells = test: Cell growth inhibition assay (CellTiter-Glo), DLD-1 parental; type: cell-based; conditions: Homo sapiens, DLD-1, 168 h; 50 cells/well, 7 days, CellTiter Glo 2.0; read-out: DLD-1 parental pEC50 (converted)
Method: as §1, §2

T2 sequence (Q9UGN5 whole entry): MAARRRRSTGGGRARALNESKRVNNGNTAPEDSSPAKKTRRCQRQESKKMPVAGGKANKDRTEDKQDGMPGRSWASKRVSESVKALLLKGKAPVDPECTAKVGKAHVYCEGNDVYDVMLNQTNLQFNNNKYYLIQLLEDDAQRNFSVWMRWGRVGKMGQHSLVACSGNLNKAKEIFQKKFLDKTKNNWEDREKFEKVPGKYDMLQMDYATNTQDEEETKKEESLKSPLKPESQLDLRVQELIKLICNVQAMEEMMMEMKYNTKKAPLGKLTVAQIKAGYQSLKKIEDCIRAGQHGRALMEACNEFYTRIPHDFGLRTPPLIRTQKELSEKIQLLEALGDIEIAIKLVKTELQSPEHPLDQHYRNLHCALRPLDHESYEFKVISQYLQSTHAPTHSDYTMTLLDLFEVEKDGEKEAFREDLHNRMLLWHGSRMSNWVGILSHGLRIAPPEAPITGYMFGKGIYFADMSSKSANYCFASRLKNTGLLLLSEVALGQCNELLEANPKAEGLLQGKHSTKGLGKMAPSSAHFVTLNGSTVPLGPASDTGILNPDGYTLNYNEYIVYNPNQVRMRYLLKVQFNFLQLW
T1 sequence (P09874 whole entry): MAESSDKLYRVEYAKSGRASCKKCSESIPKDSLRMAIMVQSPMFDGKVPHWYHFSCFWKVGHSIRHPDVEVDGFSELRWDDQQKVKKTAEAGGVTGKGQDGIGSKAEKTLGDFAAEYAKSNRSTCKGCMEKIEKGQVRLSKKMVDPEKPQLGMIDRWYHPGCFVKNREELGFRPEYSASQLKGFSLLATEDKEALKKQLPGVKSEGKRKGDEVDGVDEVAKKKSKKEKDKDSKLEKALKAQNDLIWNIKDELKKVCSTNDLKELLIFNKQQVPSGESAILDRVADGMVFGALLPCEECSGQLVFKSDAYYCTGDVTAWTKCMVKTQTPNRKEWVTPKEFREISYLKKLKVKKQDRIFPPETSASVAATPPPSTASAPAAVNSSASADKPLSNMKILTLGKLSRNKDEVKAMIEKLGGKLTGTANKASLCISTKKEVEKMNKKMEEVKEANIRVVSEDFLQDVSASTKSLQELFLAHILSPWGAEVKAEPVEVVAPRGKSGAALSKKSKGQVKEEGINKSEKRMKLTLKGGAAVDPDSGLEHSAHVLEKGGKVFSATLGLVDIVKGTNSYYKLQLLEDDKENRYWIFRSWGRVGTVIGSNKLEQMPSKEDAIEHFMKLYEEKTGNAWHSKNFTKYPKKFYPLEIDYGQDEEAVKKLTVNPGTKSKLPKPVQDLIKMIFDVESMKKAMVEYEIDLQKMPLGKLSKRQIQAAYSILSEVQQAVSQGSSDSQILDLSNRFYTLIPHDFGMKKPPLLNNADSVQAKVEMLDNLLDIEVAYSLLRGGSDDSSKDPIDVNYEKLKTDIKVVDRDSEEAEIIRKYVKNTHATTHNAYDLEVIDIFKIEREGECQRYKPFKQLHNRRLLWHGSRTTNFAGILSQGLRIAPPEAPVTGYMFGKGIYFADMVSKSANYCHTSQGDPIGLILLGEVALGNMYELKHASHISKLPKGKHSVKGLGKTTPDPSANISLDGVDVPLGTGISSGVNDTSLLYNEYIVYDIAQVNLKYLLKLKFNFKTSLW

| EC50 [1] [nM] | IC50 (PARP1) [nM] | IC50 (PARP2) [nM] | EC50 (DLD-1 BRCA2(−/−) cells) [nM] | Structure (SMILES) | EC50 (DLD-1 parental cells) [nM] |
| --- | --- | --- | --- | --- | --- |
| 2.51 | 5.01 | 5010 | 2.51 | Cc1cc2ncc(CN3CCN(c4ccc(C#N)cn4)CC3)cc2[nH]c1=O [Example 6] | > 31600 |
| 2.51 |  |  | 3.16 | CCc1cc2ncc(CN3CCN(c4ccc(C#N)nc4)CC3)cc2[nH]c1=O [Example 3, 5-{4-[(7-ethyl-6-oxo-5H-1,5-naphthyridin-3-yl)methyl]piperazin-1-yl}pyridine-2-carbonitrile] | > 31600 |
| 2 | 5.01 | 50100 | 2.51 | N#Cc1ccc(N2CCN(Cc3cnc4cc(Cl)c(=O)[nH]c4c3)CC2)nc1 [Example 57] | 20000 |
| 1.26 | 6.31 | 2000 | 1.58 | N#Cc1ccc(N2CCN(Cc3cnc4cc(Br)c(=O)[nH]c4c3)CC2)nc1 [Example 60, 6-{4-[(7-bromo-6-oxo-5H-1,5-naphthyridin-3-yl)methyl]piperazin-1-yl}pyridine-3-carbonitrile] |  |
| 39.8 | 5.01 | 2510 | 50.1 | N#Cc1ccc(N2CCN(Cc3cnc4cc(C5CC5)c(=O)[nH]c4c3)[C@H]3C[C@H]32)nc1 (single isomer, unassigned) [Example 20] |  |
| 7.94 | 3.98 | > 100000 | 12.6 | Cc1cc2ncc([C@H](C)N3CCN(c4ccc(C#N)cn4)CC3)cc2[nH]c1=O (single isomer, unassigned) [Example 32] |  |
| 39.8 | 7.94 | > 100000 | 12.6 | Cc1cc2ncc(CN3CCN(c4ccc(C#N)nc4C4CC4)CC3)cc2[nH]c1=O [Example 27] |  |
| 1 | 50.1 | 316 | 2 | Cc1c(C(F)F)c(=O)[nH]c2cc(CN3CCN(c4ccc(C#N)cn4)CC3)cnc12 [Example 42, 6-(4-{[7-(difluoromethyl)-8-methyl-6-oxo-5H-1,5-naphthyridin-3-yl]methyl}piperazin-1-yl)pyridine-3-carbonitrile] |  |
| 200 | 39.8 | > 100000 | 100 | Cc1cc2ncc(CN3CCN(c4ccc(F)cn4)[C@H](C)C3)cc2[nH]c1=O [Example 23] |  |
| 1 | 7.94 | > 100000 | 1.26 | Cc1cc2ncc(CN3CCN(c4ccc(C#N)nc4Cl)CC3)cc2[nH]c1=O [Example 55] |  |
| 79.4 | 6.31 | > 100000 | 63.1 | Cc1cc2ncc([C@H](C)N3CCN(c4ccc(C#N)cn4)[C@H](C)C3)cc2[nH]c1=O (single isomer, unassigned) [Example 29] |  |
| 5.01 | 10 | 12600 | 7.94 | Cc1cc2c(F)cc(CN3CCN(c4ccc(C#N)cn4)CC3)cc2[nH]c1=O [Example 79] |  |
| 1 | 6.31 | > 100000 | 1.26 | N#Cc1ccc(N2CCN(Cc3cnc4cc(C(F)F)c(=O)[nH]c4c3)CC2)cc1 [Example 59] |  |
| 2.51 | 2.51 | 6310 | 3.16 | Cc1cc2ncc([C@@H](C)N3CCN(c4ccc(C#N)cn4)CC3)cc2[nH]c1=O (single isomer, unassigned) [Example 33] |  |
| 2 | 5.01 | > 100000 | 5.01 | CCc1cc2ncc(CN3CCC(c4ccc(C#N)cn4)CC3)cc2[nH]c1=O [Example 64] |  |
